# Assay results as given in patent US20260199500A1, “Camptothecin Derivative, Conjugate Thereof, Preparation Method Therefor and Medical Use Thereof” (priority 2023, published 2026).
# Tests used:
# [1] = system: N87 gastric cancer cells; assay: Inhibitory activity of compounds on N87 gastric cancer cells (CellTiter-Glo, 144 h); format: cell-based; settings: IC50 of PY-X (DXD) set to 1; values are ratios of measured IC50 to DXD; 144 h
# Method: (§1) On the day of the experiment, the cells were digested with 0.25% trypsin (Gibco, 25200-072), filtered through a 40 μm sieve, diluted with the corresponding medium to a cell density of 1×10^4 cells/mL, and inoculated into a 96-well white cell culture plate (Beyotime, FCP968), with 100 μL of cells added per well. The culture plate was placed in a 37° C. incubator (Thermo 311) containing 5% C02 and incubated for 24 hours. On the second day, the samples to be tested were prepared as a stock solution at a final concentration of 1M in DMSO (Sigma, D1650), then diluted with the corresponding medium to a final concentration of 200 nM, and subjected to four-fold serial dilutions, resulting in a total of 9 concentrations. 100 μL of the diluted sample was added to each well of the 96-well plate. The plate was placed in a 37° C. incubator containing 5% CO2 and incubated for 144 hours. The cell culture plate was then removed, and 100 μL of the cell viability assay reagent (CellTiter-Glo® Luminescent Cell Viability Assay, Promega, G7571) was added to each well. The reaction was carried out in the dark at room temperature for 5 minutes. Luminescence values were read using a microplate reader (TECAN SPARK), and data were processed using Graphpad Prism 7 software.
# (§2) PY—Y is referenced in the document (WO2022170971A1); and PY-A is referenced in the document (WO2021148501A1).
# [2] = system: MDA-MB-468 breast cancer cells; assay: Inhibitory activity of compounds on MDA-MB-468 breast cancer cells (CellTiter-Glo); format: cell-based; settings: IC50 of PY-X (DXD) set to 1; values are ratios of measured IC50 to DXD
# Method: as §1, §2
# [3] = system: PANC-1 (Pancreatic) cells; assay: Inhibition of PANC-1 cells by compounds; format: cell-based; settings: PY-X (DXD) set to 1
# Method: as §1
# [4] = system: H82 (SCLC) cells; assay: Inhibition of H82 cells by compounds; format: cell-based; settings: PY-X (DXD) set to 1
# Method: as §1
# [5] = system: A549 (NSCLC) cells; assay: Inhibition of A549 cells by compounds; format: cell-based; settings: PY-X (DXD) set to 1
# Method: as §1
# [6] = system: H1437 (NSCLC) cells; assay: Inhibition of H1437 cells by compounds; format: cell-based; settings: PY-X (DXD) set to 1
# Method: as §1
# [7] = system: Colo-205 (Colon) cells; assay: Inhibition of Colo-205 cells by compounds; format: cell-based; settings: PY-X (DXD) set to 1
# Method: as §1
# [8] = system: SW1573 (NSCLC) cells; assay: Inhibition of SW1573 cells by compounds; format: cell-based; settings: PY-X (DXD) set to 1
# Method: as §1
# [9] = system: H1650 (NSCLC) cells; assay: Inhibition of H1650 cells by compounds; format: cell-based; settings: PY-X (DXD) set to 1
# Method: as §1
# [10] = system: SW1990 (Pancreatic) cells; assay: Inhibition of SW1990 cells by compounds; format: cell-based; settings: PY-X (DXD) set to 1
# Method: as §1
# [11] = system: HT-29 (Colon) cells; assay: Inhibition of HT-29 cells by compounds; format: cell-based; settings: PY-X (DXD) set to 1
# Method: as §1
# [12] = Log D of small molecules (1-octanol / phosphate buffer pH 2.5 and pH 7.4, LC-MS/MS); format: physicochemical
# Method: (1) Preparation of 100 mM phosphate buffer (PB) solution at pH 2.5 and pH 7.4 respectively: • a. Preparation of a solution of 100 mM H3PO4 in water: 14.7 M H3PO4 was diluted with water to a concentration of 100 mM H3PO4, and the pH was measured to be approximately 1.8. • b. Preparation of 100 mM NaH2PO4: 5.999 g of NaH2PO4 was dissolved in 500 mL of water and the pH was measured to be approximately 4.5. • c. Preparation of 100 mM Na2HPO4: 7.098 g of Na2HPO4 was dissolved in water to a volume of 500 mL and the pH was measured to be approximately 9.4. • d. Preparation of 100 mM PB (pH 2.5): 15 mL of 100 mM H3PO4 was added to a 50 mL tube, and then pH was adjusted to 2.5±0.05 with 100 mM NaH2PO4. • d. Preparation of 100 mM PB (pH 7.4): 15 mL of 100 mM Na2HPO4 was added to a 50 mL tube, and then pH was adjusted to 7.4±0.05 with 100 mM NaH2PO4.
# (2) Saturation of PBs (pH 2.5 and pH 7.4) with 1-octanol: 10 mL of 1-octanol was added to 100 mL of 100 mM PBs (pH 2.5 and pH 7.4), and the mixture was shaken vigorously, and then allowed to stand overnight at room temperature for later use.
# (3) Saturation of 1-octanol with PBs (pH 2.5 and pH 7.4): 10 mL of 100 mM PBs (pH 2.5 and pH 7.4) was added to 100 mL of 1-octanol, and the mixture was shaken vigorously, and then allowed to stand overnight at room temperature for later use.
# 2.1) 2 μL of 10 mM DMSO stock solution of the test compound were dispensed into test tubes, in duplicate.
# 2.2) 149 μL of PB saturated with 1-octanol (pH 2.5 and 7.4) were added to the tubes.
# 2.3) 149 μL of PB (pH 2.5 and 7.4) saturated with 1-octanol were added to the corresponding tubes.
# 2.4) Each tube was vigorously mixed for 2 minutes, then shaken at 800 rpm for 1 hour at room temperature.
# 2.5) The tubes were centrifuged at 4000 rpm for 5 minutes at room temperature.
# 2.6) Appropriate volumes of the buffer phase and 1-octanol phase samples were aliquoted.
# 2.7) These samples were diluted and analyzed using LC-MS/MS without running a calibration curve.
# 2.8) Data analysis: The log D value of each compound was calculated using the following formula: f
compound,measurement,setting,value
"CC[C@@]1(O)C(=O)OCc2c1cc1n(c2=O)Cc2c-1nc1cc(F)c(C)c3c1c2[C@@H](CC(=O)NCCO)CC3 [PY-25B, 2-((1R,9S)-9-9-ethyl-5-fluoro-9-hydroxy-4-methyl-10,13-dioxo-2,3,9,10,13,15-hexahydro-1H,12H-benzo[de]pyrano[3′,4′:6,7]indolizino[1,2-b]quinolin-1-yl)-N-(2-hydroxyethyl)acetamide]","IC50 on N87 cells, ratio to DXD",[1],2.9428
same,"IC50 on 468 cells, ratio to DXD",[2],1.3101
"CC[C@@]1(O)C(=O)OCc2c1cc1n(c2=O)Cc2c-1nc1cc(F)c(COC(=O)NCCO)c3c1c2CCC3 [PY-27(10Car), (S)-(9-ethyl-5-fluoro-9-hydroxy-10,13-dioxy-2,3,9,10,13,15-hexahydro-1H,12H-benzo[d]pyrano[3′,4′:6,7]indolizino[1,2-b]quinolin-4-yl)methyl(2-hydroxyethyl)carbamate]","IC50 on N87 cells, ratio to DXD",[1],3.3500
same,"IC50 on 468 cells, ratio to DXD",[2],3.7610
"CC[C@@]1(O)C(=O)OCc2c1cc1n(c2=O)Cc2c-1nc1cc(Cl)c(CN)c3c1c2CCC3 [PY-36, (S)-4-(aminomethyl) 5-chloro-9-ethyl-9-hydroxy-1,2,3,9,12,15-hexahydro-10 h,13 h-benzo[de]pyrano[3′,4′:6,7]indolizino[1,2-b]quinolin-10,13-dione]","IC50 in PANC-1 cells, ratio to DXD",[3],0.6317
same,"IC50 in H82 cells, ratio to DXD",[4],1.5585
same,"IC50 in A549 cells, ratio to DXD",[5],0.4500
same,"IC50 in H1437 cells, ratio to DXD",[6],1.1187
same,"IC50 in Colo-205 cells, ratio to DXD",[7],0.9857
same,"IC50 in SW1573 cells, ratio to DXD",[8],0.7619
same,"IC50 in H1650 cells, ratio to DXD",[9],0.8758
same,"IC50 in SW1990 cells, ratio to DXD",[10],1.3305
same,"IC50 in HT-29 cells, ratio to DXD",[11],0.4909
"CC[C@@]1(O)C(=O)OCc2c1cc1n(c2=O)Cc2c-1nc1cc(Cl)c(CO)c3c1c2CCC3 [PY-37, (S)-5-chloro-9-ethyl-9-hydroxy-4-(hydroxymethyl)-1,2,3,9,12,15-hexahydro-10 h,13 h-benzo[de]pyrano[3′,4′:6,7]indolizino[1,2-b]quinolin-10,13-dione]","IC50 in PANC-1 cells, ratio to DXD",[3],0.3514
same,"IC50 in H82 cells, ratio to DXD",[4],1.1563
same,"IC50 in A549 cells, ratio to DXD",[5],0.4179
same,"IC50 in H1437 cells, ratio to DXD",[6],0.9440
same,"IC50 in Colo-205 cells, ratio to DXD",[7],0.6449
same,"IC50 in SW1573 cells, ratio to DXD",[8],0.6712
same,"IC50 in H1650 cells, ratio to DXD",[9],0.7310
same,"IC50 in SW1990 cells, ratio to DXD",[10],0.7777
same,"IC50 in HT-29 cells, ratio to DXD",[11],0.4700
"CC[C@@]1(O)C(=O)OCc2c1cc1n(c2=O)Cc2c-1nc1ccc(CO)c3c1c2CCC3 [PY-37A, (S)-9-ethyl-9-hydroxy-4-(hydroxymethyl)-1,2,3,9,12,15-hexahydro-10 h,13 h-benzo[de]pyrano[3′,4′:6,7]indolizino[1,2-b]quinolin-10,13-dione]","IC50 in PANC-1 cells, ratio to DXD",[3],0.1992
same,"IC50 in H82 cells, ratio to DXD",[4],0.4153
same,"IC50 in A549 cells, ratio to DXD",[5],0.2044
same,"IC50 in H1437 cells, ratio to DXD",[6],0.2619
same,"IC50 in Colo-205 cells, ratio to DXD",[7],0.2763
same,"IC50 in SW1573 cells, ratio to DXD",[8],0.2884
same,"IC50 in H1650 cells, ratio to DXD",[9],0.2611
same,"IC50 in SW1990 cells, ratio to DXD",[10],0.2986
same,"IC50 in HT-29 cells, ratio to DXD",[11],0.2181
"CC[C@@]1(O)C(=O)OCc2c1cc1n(c2=O)Cc2c-1nc1cc(F)c(C)c3c1c2[C@@H](NC(=O)CO)CC3 [PY-X (DXD), exatecan DXD, reference compound]",Log D2.5 (Oct/buff) Result,[12]; 1-octanol / phosphate buffer pH 2.5,1.68
same,Log D7.4 (Oct/buff) Result,[12]; 1-octanol / phosphate buffer pH 7.4,1.67
same,"IC50 on N87 cells, ratio to DXD",[1],1.0000
same,"IC50 on 468 cells, ratio to DXD",[2],1.0000
"(S)-9-ethyl-5-fluoro-9-hydroxy-1,2,3,9,12,15-hexahydro-10H,13H-benzo[de]pyrano[3′,4′: 6,7]indolizino[1,2-b]quinolin-10,13-dione [PY-10B]","IC50 on N87 cells, ratio to DXD",[1],0.1623
same,"IC50 on 468 cells, ratio to DXD",[2],0.4362
